Tests used:
[1] = system: TiL1 cells; experiment: Cell viability assay with irradiated TiL1 cells (ATPlite); format: cell-based; conditions: 2Gy, ATPlite 24 hours after irradiation, normalized to vehicle control
Description: FIGS. 3A and 3B show radiation dose-responses of irradiated TiL1 cells treated with cyclopiazonic acid (CPA). Cell viability assay with TiL1 cells was measured using ATPlite reagent 24 h after irradiation with 2Gy. CPA was added to the cells 3 h before IR for protection (FIG. 3A) or 1 h after IR for mitigation (FIG. 3B) activities.
Dose-responses of irradiated cells treated with cyclopiazonic acid (CPA) were determined. A cell viability assay with TiL1 cells was measured using ATPlite reagent 24 hours after irradiation with 2Gy. CPA was added to the cells 3 h before irradiation for protection (FIG. 3A), or 1 hour after irradiation mitigation (FIG. 3B) activities. The percent cell viability plotted was normalized to vehicle control value. As shown in FIGS. 3A and 3B CPA both protects and mitigates TiL1 cell from radiation damage.

[2] = system: TiL-1 cells; experiment: ROS scavenging: intracellular ROS after irradiation (DCF-DA); format: cell-based; conditions: compound added 3 h before irradiation; DCF-DA 25 μM 1 h before; measured immediately after irradiation
Description: FIGS. 5A and 5B show the effect of CPA on ROS scavenging.
The effect of CPA on ROS scavenging was also evaluated. […] The intracellular ROS was measured immediately after irradiation in TiL-1 cells using 2′,7′-dichlorofluorescein diacetate (DCF-DA, Invitrogen). The compound and DCF-DA probe at 25 μM was added 3 h and 1 h before irradiation, respectively.

[3] = system: bone marrow cells; experiment: Granulocyte-macrophage colony forming units from bone marrow after total body irradiation; format: in vivo, mice; conditions: 6 mg/kg twice prior to irradiation; bone marrow collected 3 d after TBI, counted 8-9 d after plating; p<0.05 IR vs IR+CPA
Description: (§1) FIGS. 4A and 4B show the effect of CPA on animal survival against a lethal dose total body irradiation (TBI). FIG. 4A: Two oral administrations of CPA at 24 h and 1 h prior to irradiation at 8 Gy. FIG. 4B: CPA at 6 mg/kg or vehicle control was administered twice prior to irradiation as (FIG. 4A) along with un-irradiated control mice for Granulocyte-macrophage colony forming units.
CPA at 6 mg/kg or vehicle control was administered twice prior to irradiation as described above along with un-irradiated control mice for Granulocyte-macrophage colony forming units.

[4] = system: mice; experiment: Animal survival against a lethal dose total body irradiation; format: in vivo
Description: as §1
The effect of CPA on animal survival against a lethal dose total body irradiation was determined. […] This effect was most prominent with CPA treatment at 6 mg/kg showing 89% survival while only 17% of controls survived.

cyclopiazonic acid [CPA]
percent cell viability, mitigation activity ([1]; CPA added 1 hour after irradiation): mitigates | percent cell viability, protection activity ([1]; CPA added 3 h before irradiation): protects | reduction of irradiation induced reactive oxygen species [2]: did not reduce | Gm-CFU, protection of the immunohematopoietic system [3]: protects the immunohematopoietic system | survival ([4]; 6 mg/kg oral, 24 h and 1 h prior to irradiation at 8 Gy, 17% of controls survived): 89% | protection from radiation-induced death ([4]; two oral administrations at 24 h and 1 h prior to irradiation at 8 Gy): protected mice from radiation-induced death

CC(C)(C)c1cc(O)c(C(C)(C)C)cc1O [di-tBHQ, 2,5-ditertbutylhydroquinone, reference compound]
reduction of irradiation induced reactive oxygen species [2]: did in dose-responsive manner
